Key:
TRKA^WT kinase = TRKA^WT kinase (Homo sapiens (Human), UniProt P04629); assay: Inhibitory activity against TRKA WT kinase (Caliper mobility shift); type: biochemical; conditions: in vitro kinase assay
Protocol: Kinase Assay Process: 1× Kinase buffer was prepared. […] The compounds were serially diluted into 10 concentrations ([…], 0.15, and 0.05 nM) using a Precision 3-fold dilution method. By using the Echo550 liquid handler, 250 nL of the 100-fold final concentration compound was transferred to an OptiPlate-384F plate. a 2.5× final concentration kinase solution was prepared using 1× Kinase buffer. 10 μL of the 2.5× final concentration kinase solution was added to the compound wells and the positive control wells, and 10 μL of 1× Kinase buffer was added to the negative control wells. The plate was centrifuged at 1000 rpm for 30 seconds, vortexed for mixing, and then incubated at room temperature for 10 minutes. A mixture of 5/3× final concentration of ATP and Kinase Substrate 22 was prepared using 1× Kinase buffer. 15 μL of the mixture of the 5/3× final concentration ATP and the substrate was added to initiate the reaction, the 384-well plate was centrifuged at 1000 rpm for 30 seconds, vortexed for mixing, and incubated at room temperature for the required time. 30 μL of the termination solution was added to stop the kinase reaction, the plate was centrifuged at 1000 rpm for 30 seconds, and vortexed for mixing. The conversion rate was measured using the Caliper EZ Reader.
Data Analysis: the inhibition rate was calculated as follows:
% Inhibition=(Conversion %_max−conversion %_sample)÷(Conversion %_max−conversion %_min)×100
Conversion %_sample is the conversion rate reading for the sample; Conversion %_min is the average value of the negative control wells, representing the conversion rate for wells without enzyme activity: Conversion %_max is the average value of the positive control wells, representing the conversion rate for wells without compound inhibition. A dose-response curve was fitted using the log concentration of the compound as the X-axis and the percentage inhibition as the Y-axis. The log(inhibitor) vs. response-variable slope of the GraphPad Prism 5 software was used to fit the dose-response curve, and the IC50 value for each compound was obtained. The calculation formula is:
Y=Bottom+(Top−Bottom)/(1+10^((Log IC50−X)*HillSlope)).
wherein X represents the concentration of the compound to be tested; Y represents the inhibition rate at the concentration X: Top refers to the maximum response: Bottom refers to the baseline response; HillSlope refers to the slope of the curve (i.e., the gradient).

[1] = test system: Ba/F3-TPM3-NTRK1-G667C cells; assay: Growth inhibition of Ba/F3-TPM3-NTRK1-G667C cells (Cell Titer-Glo); type: cell-based; conditions: 72 hours, CTG; read-out: inhibitory activity IC50 Ba/F3-TPM3-NTRK1-G667C
Protocol: Then the solutions were subjected to a gradient dilution with DMSO: a clean, sterile V-bottom 96-well microplate was placed in the biological safety cabinet. First, 4 μL of DMSO was added to well B2 and 10 μL of DMSO was added to wells B3-B11 respectively; Next, 6 μL of the 10 mM solution was added to well B2. The microplate was pipetted up and down 10 times for mixing. […] Mixing was performed by pipetting up and down 10 times. The solution was diluted in order until well B10. only DMSO was added to well B11 (no compound).
6× Compound Solution Preparation (6-fold dilution, × represents dilution factor): (Initial final concentration: 10 μM), a clean, sterile V-bottom 96-well microplate was placed in the biological safety cabinet. 99 μL of cell culture medium was added to each well from B2 to G11. By using a 12-channel pipettor, 1 μL of the compound solution prepared in the previous step was added into the corresponding wells. The solutions were pipetted up and down 10 times to mix the solutions. The highest concentration of compound in this step was 60 μM.
Treatment of Cells: the above-prepared cell culture plate was taken out of the incubator. 20 μL of compound solution from each well was added to the corresponding cell culture wells. The lowest pipetting speed was used and touching the bottom of the plate was avoided. The culture plate was gently shaked to mix the compound solution, then the plate was returned to the incubator for further culture for 72 hours.
The highest treatment concentration of the compound was 10 μM. After 72 hours of treatment, the Cell Titer-Glo (CTG) assay was performed. First, the cell culture plate was removed from the CO2 incubator and allowed to stand at room temperature for 30 minutes to ensure uniform temperature of the plate. The pre-prepared Cell Titer-Glo reagent (following the manufacturer's instructions) was taken and allowed to stand at room temperature to thaw. 60 μL of Cell Titer-Glo reagent was added to each well containing cells. The cells were incubated on a horizontal shaker in a dark place at 225 rpm for 1 hour at room temperature. Then, a Tecan Spark microplate reader was used to read the plate using chemiluminescence according to the manufacturer's instructions.

Chain of TRKA^WT kinase (P04629 33-796): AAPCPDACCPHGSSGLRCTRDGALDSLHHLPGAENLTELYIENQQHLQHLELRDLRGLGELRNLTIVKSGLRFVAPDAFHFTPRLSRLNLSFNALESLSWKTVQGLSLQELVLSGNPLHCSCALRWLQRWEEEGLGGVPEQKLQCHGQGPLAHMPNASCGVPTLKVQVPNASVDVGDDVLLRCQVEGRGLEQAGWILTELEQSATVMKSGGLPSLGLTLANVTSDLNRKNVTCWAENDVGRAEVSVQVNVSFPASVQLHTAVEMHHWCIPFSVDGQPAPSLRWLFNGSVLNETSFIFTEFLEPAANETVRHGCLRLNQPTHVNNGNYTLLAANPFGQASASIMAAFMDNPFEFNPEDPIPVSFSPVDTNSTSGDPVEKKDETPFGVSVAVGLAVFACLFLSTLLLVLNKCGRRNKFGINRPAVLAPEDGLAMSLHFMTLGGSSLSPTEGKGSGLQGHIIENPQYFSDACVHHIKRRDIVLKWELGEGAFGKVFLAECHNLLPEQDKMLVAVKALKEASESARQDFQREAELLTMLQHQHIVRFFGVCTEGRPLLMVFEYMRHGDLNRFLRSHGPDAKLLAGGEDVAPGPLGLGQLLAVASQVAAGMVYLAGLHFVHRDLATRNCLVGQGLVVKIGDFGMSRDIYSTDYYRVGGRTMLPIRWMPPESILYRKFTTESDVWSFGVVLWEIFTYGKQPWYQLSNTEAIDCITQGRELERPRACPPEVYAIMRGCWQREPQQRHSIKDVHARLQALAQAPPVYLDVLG

| IC50 (TRKA^WT kinase) [nM] | IC50 [1] [nM] | Molecule |
| --- | --- | --- |
|  | < 100 | C[C@H]1Nc2ccc3ncc(n3n2)-c2nccc(n2)COc2ccc(F)cc21 [Example I-80, (6R,E)-5^4-fluoro-6-methyl-4-oxa-7-aza-1(3,6)-imidazo[1,2-b]pyridazina-2(2,4)-pyrimidina-5(1,2)-benzenacycloheptaphane] |
|  | < 100 | C[C@H]1Nc2ccc3ncc(n3n2)-c2cc(cnn2)COc2ncc(F)cc21 [Example I-81, (6R,E)-5^5-fluoro-6-methyl-4-oxa-7-aza-1(3,6)-imidazo[1,2-b]pyridazina-2(3,5)-pyridazina-5(2,3)-pyridinacycloheptaphane] |
|  | < 100 | C[C@H]1Nc2ccc3ncc(n3n2)-c2cc(cnn2)COc2ccc(F)cc21 [Example I-82, (6R,E)-54-fluoro-6-methyl-4-oxa-7-aza-1(3,6)-imidazo[1,2-b]pyridazina-2(3,5)-pyridazina-5(1,2)-benzenacycloheptaphane] |
|  | < 100 | C[C@H]1Nc2ccc3ncc(n3n2)-c2nccc(n2)CCOc2ncc(F)cc21 [Example I-83, (4R,E)-5′-fluoro-4-methyl-6-oxa-3-aza-2(3,6)-imidazo[1,2-b]pyridazina-1(2,4)-pyrimidina-5(3,2)-pyridinacyclooctaphane] |
|  | < 100 | C[C@H]1Nc2ccc3ncc(n3n2)-c2nccc(n2)CCOc2ccc(F)cc21 [Example I-84, (4R,E)-5^5-fluoro-4-methyl-6-oxa-3-aza-2(3,6)-imidazo[1,2-b]pyridazina-1(2,4)-pyrimidina-5(1,2)-benzenacyclooctaphane] |
|  | < 100 | Fc1ccc2c(c1)[C@H]1CCCN1c1ccc3ncc(n3n1)-c1nccc(n1)CCO2 [Example I-85, (3^2R,E)-4^5-fluoro-5-oxa-2(3,6)-imidazo[1,2-b]pyridazina-1(2,4)-pyrimidina-3(1,2)-pyrrolidina-4(1,2)-benzenacycloheptaphane] |
|  | < 100 | Fc1cnc2c(c1)[C@H]1CCCN1c1ccc3ncc(n3n1)-c1nccc(n1)CCO2 [Example I-87, (3^2R,E)-4^5-fluoro-5-oxa-2(3,6)-imidazo[1,2-b]pyridazina-1(2,4)-pyrimidina-4(3,2)-pyridina-3(1,2)-pyrrolidinacycloheptaphane] |
|  | < 100 | Fc1ccc2c(c1)[C@H]1CCCN1c1ccc3ncc(n3n1)-c1cc(cnn1)CCO2 [Example I-91, (3^2R,E)-4^5-fluoro-5-oxa-2(3,6)-imidazo[1,2-b]pyridazina-1(3,5)-pyridazina-3(1,2)-pyrrolidina-4(1,2)-benzenacycloheptaphane] |
|  | < 100 | Fc1cnc2c(c1)[C@H]1CCCN1c1ccc3ncc(n3n1)-c1cc(cnn1)CCO2 [Example I-93, (3^2R,E)-4^5-fluoro-5-oxa-2(3,6)-imidazo[1,2-b]pyridazina-1(3,5)-pyridazina-4(3,2)-pyridina-3(1,2)-pyrrolidinacycloheptaphane] |

More lines, now with the values behind:

| Molecule | IC50 (TRKA^WT kinase) [nM] | IC50 [1] [nM] |
| --- | --- | --- |
| C[C@@H]1Nc2ccc3ncc(n3n2)-c2cc(ccn2)COc2ccc(F)cc21 [Example I-15, (S)-(E)-5′-fluoro-6-methyl-4-oxa-7-aza-1(3,6)-imidazo[1,2-b]pyridazina-2(2,4)-pyridina-5(1,2)-benzenacycloheptaphane] | 4.8 |  |
| C[C@@H]1Nc2ccc3ncc(n3n2)-c2cc(ccn2)COc2c(F)cc(F)cc21 [Example I-17, (S)-(E)-5′,5′-difluoro-6-methyl-4-oxa-7-aza-1(3,6)-imidazo[1,2-b]pyridazine-2(2,4)-pyridina-5(1,2)-benzenacycloheptaphane] | 5.2 |  |
| C[C@@H]1Nc2ccc3ncc(n3n2)-c2cc(ccn2)COc2ccccc21 [Example I-19, (S)-(E)-6-methyl-4-oxa-7-aza-1(3,6)-imidazo[1,2-b]pyridazine-2(2,4)-pyridina-5(1,2)-benzenacycloheptaphane] | 5.7 |  |
| C[C@@H]1Nc2ccc3ncc(n3n2)-c2cc(ccn2)COc2ncccc21 [Example I-21, (6S,E)-6-methyl-4-oxa-7-aza-1(3,6)-imidazo[1,2-b]pyridazina-2(2,4), 5(2,3)-dipyridinacycloheptaphane] | 6.1 |  |
| C[C@@H]1Nc2ccc3ncc(n3n2)-c2cncc(c2)COc2ccc(F)cc21 [Example I-23, (S)-(E)-5^4-fluoro-6-methyl-4-oxa-7-aza-1(3,6)-imidazo[1,2-b]pyridazina-2(3,5)-pyridina-5(1,2)-benzenacycloheptaphane] | 4.8 |  |
| C[C@@H]1Nc2ccc3ncc(n3n2)-c2cc(ncn2)COc2ccccc21 [Example I-27, (6S,E)-6-methyl-4-oxa-7-aza-1(3,6)-imidazo[1,2-b]pyridazina-2(4,6)-pyrimidina-5(1,2)-benzenacycloheptaphane] | 3.7 |  |
| C[C@@H]1Nc2ccc3ncc(n3n2)-c2cc(ccn2)CCOc2ccccc21 [Example I-29, (4S,E)-4-methyl-6-oxa-3-aza-2(3,6)-imidazo [1,2-b]pyridazina-1(2,4)-pyridina-5(1,2)-benzenacyclooctaphane] | 4.9 |  |
| C[C@@H]1Nc2ccc3ncc(n3n2)-c2cc(ccn2)OCc2ccc(F)cc21 [Example I-31, (S)-(E)-5^4-fluoro-6-methyl-3-oxa-7-aza-1(3,6)-imidazo[1,2-b]pyridazina-2(2,4)-pyridina-5(1,2)-benzenacycloheptaphane] | 5.7 |  |
| C[C@H]1Nc2ccc3ncc(n3n2)-c2cc(ccn2)CCOc2ncc(F)cc21 [Example I-75, (4R,E)-5^5-fluoro-4-methyl-6-oxa-3-aza-2(3,6)-imidazo[1,2-b]pyridazina-1(2,4), 5(3,2)-dipyridinacyclooctaphane] |  | < 100 |
| C[C@H]1Nc2ccc3ncc(n3n2)-c2cc(ccn2)CCOc2ccc(F)cc21 [Example I-76, (4R,E)-5-fluoro-4-methyl-6-oxa-3-aza-2(3,6)-imidazo[1,2-b]pyridazina-1(2,4)-pyridina-5(1,2)-benzenacyclooctaphane] |  | < 100 |
| C[C@H]1Nc2ccc3ncc(n3n2)-c2cc(ncn2)COc2ncc(F)cc21 [Example I-77, (6R,E)-5^5-fluoro-6-methyl-4-oxa-7-aza-1(3,6)-imidazo[1,2-b]pyridazina-2(4,6)-pyrimidina-5(2,3)-pyridinacycloheptaphane] |  | < 100 |
| C[C@H]1Nc2ccc3ncc(n3n2)-c2cc(ncn2)COc2ccc(F)cc21 [Example I-78, (6R,E)-5^4-fluoro-6-methyl-4-oxa-7-aza-1(3,6)-imidazo[1,2-b]pyridazina-2(4,6)-pyrimidina-5(1,2)-benzenacycloheptaphane] |  | < 100 |
| C[C@H]1Nc2ccc3ncc(n3n2)-c2nccc(n2)COc2ncc(F)cc21 [Example I-79, (6R,E)-5^5-fluoro-6-methyl-4-oxa-7-aza-1(3,6)-imidazo[1,2-b]pyridazina-2(2,4)-pyrimidina-5(2,3)-pyridinacycloheptaphane] |  | < 100 |
| (R)-(E)-4-methyl-6-oxa-3-aza-2(3,6)-imidazo[1,2-b]pyridazina-1(4,6)-pyrimidina-5(1,2)-benzenacyclooctaphane [Example I-33] | 5.9 |  |
| (S)-(E)-5^5-fluoro-6-methyl-3-oxa-7-aza-1(3,6)-imidazo[1,2-b]pyridazina-2(2,4), 5(2,3)-dipyridinacycloheptaphane [Example I-25] | 5.1 |  |

Source: US20260028352A1, “MACROCYCLIC IMIDAZO [1,2-B] PYRIDAZINE DERIVATIVE, PREPARATION METHOD THEREFOR, AND USE THEREOF” (SUZHOU LANGRUI BIOPHARMACEUTICAL CO., LTD., priority 2022, published 2026)
